Reference: paper PMC2814954 (Biochemical pharmacology, 2009)

Columns and labels:
Caco-2 cells [1] = assay: Reversibility of fatty acid uptake inhibition after 24 h recovery; type: cell-based, human; conditions: compound 40 μM for 1 h, washed, mean ± SD
3T3-L1 adipocytes = assay: C1-BODIPY-C12 fatty acid uptake inhibition in 3T3-L1 adipocytes; type: cell-based; conditions: Mus musculus, 3T3-L1, read-out: 3T3-L1 Adipocytes IC50
Caco-2 cells [2] = assay: Glucose; type: cell-based, human; conditions: 1 h preincubation
Caco-2 cells [3] = assay: MTT cytotoxicity assay in Caco-2 cells; conditions: 24 h
[4] = system: long chain acyl-CoA synthetase (Acsl); assay: Oleoyl-CoA synthetase; type: biochemical, human; conditions: Caco-2 cells pretreated 1 h; for Oleoyl CoA synthetase activity after compound treatment: rinsed, total cell extracts
HepG2 cells = assay: C1-BODIPY-C12 fatty acid uptake inhibition in HepG2 cells; type: cell-based; conditions: Homo sapiens, HepG2, read-out: HepG2 IC50
Caco-2 cells [5] = assay: C1-BODIPY-C12 fatty acid uptake inhibition in Caco-2 cells; type: cell-based, human; conditions: for IC50: Homo sapiens, Caco-2, read-out: Caco-2 IC50; for % Transport Standard Assay: compound 40 μM, Caco-2 cells, % of no-compound control, mean ± SD
[6] = 50 μM, Caco-2 cells (10 times the IC50 dosage)

SMILES | IC50 (HepG2 cells) [µM] | IC50 (Caco-2 cells [5]) [µM] | % Transport after 24 Hour Recovery (Caco-2 cells [1]) [%] | IC50 (3T3-L1 adipocytes) [µM] | 2-NBDG glucose transport (Caco-2 cells [2]; 20 μM) | Cellular toxicity (MTT assay) (Caco-2 cells [3]; [6]) | Inhibition of oleoyl CoA synthetase activity ([4]; 50 μM (10 times the IC50), cell extracts) | % Transport Standard Assay (Caco-2 cells [5]) [%] | Oleoyl CoA synthetase activity after compound treatment [4] | 2-NBDG glucose transport (Caco-2 cells [2]; 50 μM) | Cellular toxicity (MTT assay) (Caco-2 cells [3]; 100 μM, Caco-2 cells)
COc1cc(/C=C2/SC(=S)N(c3cccc(Cl)c3)C2=O)cc(Br)c1O [CB-2, (5E)-5-[(3-bromo-4-hydroxy-5-methoxyphenyl)methylene]-3-(3-chlorophenyl)-2-thioxothiazolidin-4-one] | 7.55 ± 1.23 | 3.99 ± 0.32 | 93 ±13 | 231 ± 33.5 | not affected | not toxic | about 50% | 46 ± 3 | – | – | –
O=c1cc(-c2ccc([N+](=O)[O-])cc2)nc2c(-c3ccc(Cl)cc3)c(Cc3ccccc3)[nH]n12 [CB-5, 2-benzyl-3-(4-chlorophenyl)-5-(4-nitrophenyl)-1H-pyrazolo[5,1-b]pyrimidin-7-one] | 10.2 ± 1.26 | 6.34 ± 0.93 | 88 ±18 | 901 ± 205 | not affected | not toxic | – | 54 ± 1 | not reduced | – | –
OCC(CCc1c[nH]c2ccccc12)c1c[nH]c2ccccc12 (stereo not drawn) [NCI-3, 2,4-bis(1H-indol-3-yl)butan-1-ol] | 84.1 ± 14.1 | 29.2 ± 3.64 | – | 143 ± 22.4 | – | – | – | 52 ± 2 | not reduced | reduced 2-NBDG transport slightly | not toxic

The next lines start with results.

IC50 (HepG2 cells) [µM] | IC50 (Caco-2 cells [5]) [µM] | SMILES | % Transport after 24 Hour Recovery (Caco-2 cells [1]) [%] | IC50 (3T3-L1 adipocytes) [µM] | 2-NBDG glucose transport (Caco-2 cells [2]; 20 μM) | Cellular toxicity (MTT assay) (Caco-2 cells [3]; [6]) | Inhibition of oleoyl CoA synthetase activity ([4]; 50 μM (10 times the IC50), cell extracts) | % Transport Standard Assay (Caco-2 cells [5]) [%] | Oleoyl CoA synthetase activity after compound treatment [4] | 2-NBDG glucose transport (Caco-2 cells [2]; 50 μM) | Cellular toxicity (MTT assay) (Caco-2 cells [3]; 100 μM, Caco-2 cells)
– | 4.93 ± 0.4 | Oc1c(C2=NCCNC(C(F)(F)F)=C2)ccc2ccccc12 [CB-6, 2-[7-(trifluoromethyl)-2,3-dihydro-1H-1,4-diazepin-5-yl]naphthalen-1-ol] | 74 ± 12 | – | not affected | not toxic | – | – | not reduced | – | –
– | 6.66 ± 0.64 | O=C1C=CC=CC1=C1NNC2(S1)C(=O)Nc1ccc(Br)cc12 (stereo not drawn) [CB-16, 5′-bromo-5-(6-oxocyclohexa-2,4-dien-1-ylidene)spiro[1,3,4-thiadiazolidine-2,3′-1H-indole]-2′-one] | 99 ± 16 | – | not affected | not toxic | – | – | not reduced | – | –
